According to the NIST ThermoML archive (doi:10.1021/je900550v):

Conditions: 101.33 kPa, Liquid; for speed of sound: Pulse-echo method; for mass density: Vibrating tube method

C[NH2+]CCO.O=C[O-] [2-hydroxy-N-methylethanaminium formate]
Conditions | mass density [kg/m3] | speed of sound [m/s] | viscosity [mPa·s]
308.15 K | 1122.67 | 1795.8 | 13.73
308.4 K | 1122.53 | 1795.4 | –
308.65 K | 1122.39 | 1794.9 | –
308.9 K | 1122.25 | 1794.4 | –
309.15 K | 1122.11 | 1793.9 | –
309.4 K | 1121.97 | 1793.4 | –
309.65 K | 1121.83 | 1792.9 | –
309.9 K | 1121.69 | 1792.5 | –
310.15 K | 1121.55 | 1792 | 12.78
310.4 K | 1121.41 | 1791.5 | –
310.65 K | 1121.27 | 1791 | –
310.91 K | 1121.13 | 1790.5 | –
311.16 K | 1120.99 | 1790 | –
311.4 K | 1120.85 | 1789.5 | –
311.65 K | 1120.71 | 1789 | –
311.91 K | 1120.57 | 1788.5 | –
312.16 K | 1120.43 | 1788 | –
312.41 K | 1120.29 | 1787.6 | –
312.66 K | 1120.15 | 1787.1 | –
312.91 K | 1120.02 | 1786.6 | –
313.15 K | – | – | 11.4
313.16 K | 1119.87 | 1786.1 | –
313.4 K | 1119.74 | 1785.6 | –
313.66 K | 1119.6 | 1785.1 | –
313.9 K | 1119.46 | 1784.6 | –
314.15 K | 1119.32 | 1784.1 | –
314.4 K | 1119.18 | 1783.6 | –
314.65 K | 1119.04 | 1783.1 | –
314.9 K | 1118.9 | 1782.7 | –
315.15 K | 1118.77 | 1782.2 | 10.56
315.41 K | 1118.62 | 1781.7 | –
315.65 K | 1118.49 | 1781.2 | –
315.91 K | 1118.35 | 1780.7 | –
316.16 K | 1118.21 | 1780.2 | –
316.41 K | 1118.07 | 1779.7 | –
316.66 K | 1117.93 | 1779.2 | –
316.91 K | 1117.79 | 1778.8 | –
317.16 K | 1117.65 | 1778.3 | –
317.4 K | 1117.52 | 1777.8 | –
317.65 K | – | – | 9.7
317.66 K | 1117.38 | 1777.3 | –
317.91 K | 1117.24 | 1776.8 | –
318.16 K | 1117.1 | 1776.3 | –
318.41 K | 1116.96 | 1775.8 | –
318.65 K | 1116.82 | 1775.3 | –
318.9 K | 1116.69 | 1774.8 | –
319.16 K | 1116.55 | 1774.4 | –
319.41 K | 1116.41 | 1773.9 | –
319.65 K | 1116.27 | 1773.4 | –
319.91 K | 1116.13 | 1772.9 | –
320.16 K | 1115.99 | 1772.4 | –
320.41 K | 1115.86 | 1772 | –
320.65 K | 1115.72 | 1771.5 | 9.07
320.91 K | 1115.58 | 1771 | –
321.15 K | 1115.44 | 1770.5 | –
321.41 K | 1115.3 | 1770 | –
321.66 K | 1115.16 | 1769.6 | –
321.9 K | 1115.03 | 1769.1 | –
322.15 K | 1114.89 | 1768.6 | –
322.41 K | 1114.75 | 1768.1 | –
322.65 K | 1114.61 | 1767.6 | –
322.91 K | 1114.47 | 1767.2 | –
323.15 K | – | – | 8.38
323.16 K | 1114.34 | 1766.7 | –
323.41 K | 1114.2 | 1766.2 | –
323.65 K | 1114.06 | 1765.7 | –
323.91 K | 1113.92 | 1765.2 | –
324.16 K | 1113.79 | 1764.8 | –
324.41 K | 1113.65 | 1764.3 | –
324.65 K | 1113.51 | 1763.8 | –
324.9 K | 1113.38 | 1763.3 | –
325.16 K | 1113.24 | 1762.8 | –
325.4 K | 1113.1 | 1762.3 | –
325.66 K | 1112.96 | 1761.9 | –
325.9 K | 1112.83 | 1761.4 | –
326.16 K | 1112.69 | 1760.9 | –
326.41 K | 1112.55 | 1760.4 | –
326.66 K | 1112.42 | 1759.9 | –
326.9 K | 1112.28 | 1759.4 | –
327.16 K | 1112.14 | 1759 | –
327.4 K | 1112.01 | 1758.5 | –
327.66 K | 1111.87 | 1758 | –
327.9 K | 1111.74 | 1757.5 | –
328.15 K | 1111.6 | 1757 | –
328.41 K | 1111.46 | 1756.5 | –
328.66 K | 1111.33 | 1756 | –
328.9 K | 1111.19 | 1755.6 | –
329.16 K | 1111.06 | 1755.1 | –
329.4 K | 1110.92 | 1754.6 | –
329.65 K | 1110.78 | 1754.1 | –
329.9 K | 1110.65 | 1753.6 | –
330.16 K | 1110.52 | 1753.2 | –
330.41 K | 1110.38 | 1752.7 | –
330.66 K | 1110.25 | 1752.2 | –
330.91 K | 1110.12 | 1751.8 | –
331.16 K | 1109.99 | 1751.3 | –
331.41 K | 1109.86 | 1750.8 | –
331.66 K | 1109.73 | 1750.3 | –
331.91 K | 1109.6 | 1749.9 | –
332.16 K | 1109.47 | 1749.4 | –
332.41 K | 1109.34 | 1748.9 | –
332.66 K | 1109.21 | 1748.5 | –
332.91 K | 1109.08 | 1748 | –
333.16 K | 1108.95 | 1747.5 | –
333.41 K | 1108.82 | 1747.1 | –
333.66 K | 1108.69 | 1746.6 | –
333.91 K | 1108.56 | 1746.2 | –
334.16 K | 1108.43 | 1745.7 | –
334.41 K | 1108.3 | 1745.2 | –
334.66 K | 1108.18 | 1744.8 | –
334.91 K | 1108.05 | 1744.3 | –
335.16 K | 1107.92 | 1743.8 | –
335.41 K | 1107.79 | 1743.4 | –
335.66 K | 1107.67 | 1742.9 | –
335.91 K | 1107.54 | 1742.5 | –
336.16 K | 1107.42 | 1742 | –
336.41 K | 1107.29 | 1741.6 | –
336.66 K | 1107.16 | 1741.1 | –
336.9 K | 1107.03 | 1740.7 | –
337.16 K | 1106.9 | 1740.2 | –
337.4 K | 1106.78 | 1739.8 | –
337.66 K | 1106.66 | 1739.4 | –
337.9 K | 1106.53 | 1738.9 | –
338.15 K | 1106.43 | 1738.6 | –
